Measured values published in BigSolDB 2.1.

COC(=O)N(OC)c1ccccc1COc1ccn(-c2ccc(Cl)cc2)n1
solubility (mole fraction)
Details	283.15 K	288.15 K	293.15 K	298.15 K	303.15 K	308.15 K
in cyclohexane	0.000942	0.00148	0.00217	0.00311	0.00448	0.00609
in ethanol	0.00458	0.00601	0.00866	0.0117	0.0184	0.0326
in isobutanol	0.00283	0.00377	0.00527	0.00758	0.0115	0.0186
in isopropanol	0.00248	0.00332	0.00481	0.00687	0.0102	0.0163
in n-butanol	0.00534	0.00663	0.00916	0.0132	0.0214	0.0343
